Structures can show the parent of a compound that is named as a salt.
Test system: MTT (mouse pheochromocytoma)
Experiment: IC50 of cell viability (ATP content)
Settings: (24 or 48 h)
Outline: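 MTT mouse pheochromocytoma cells, cultured overnight at 37°C, 5% CO2 in DMEM with 5% FBS and 1% horse serum, were exposed in white 1536-well plates to library compounds in DMSO at final 0.5 nM to 46 µM (8 concentrations) for 24 or 48 hrs. CellTiter-Glo luminescence was normalised to positive-control (100%) and DMSO (0%) wells. A four-parameter logistic fit gave the IC50.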

Q: With [H][C@]12C[C@@]3([H])C4=CCO[C@@H]5CC(=O)N6C([C@@]35[H])[C@]1(CC[N@@]2C4)C7=C6C=CC=C7 (some centres not stated) [STRYCHNINE] as the compound, how does the “IC50 of cell viability” value read?
A: > 46 µM

Q: Which “IC50 of cell viability” value does the source give for C(=C\c1ccncc1)/c1ccccc1 [STYRYLPYRIDINIUM CHLORIDE] here?
A: > 46 µM

Q: For O=C(O)CCC(=O)O [SUCCINIC ACID], which “IC50 of cell viability” value is on record?
A: > 46 µM

Q: With CC1(C)SC2C(NC(=O)C(c3ccccc3)S(=O)(=O)[O-])C(=O)N2C1C(=O)[O-] (configuration not stated) [SULBENICILLIN DISODIUM] as the compound, how does the “IC50 of cell viability” value read?
A: > 46 µM

Q: Cc1nc(N[S+](=O)([O-])c2ccc(N)cc2)nc(C)c1Br [SULFABROMOMETHAZINE SODIUM] was tested. Which “IC50 of cell viability” value did it give?
A: > 46 µM

Q: For NC(=O)NS(=O)(=O)c1ccc(N)cc1 [SULFACARBAMIDUM], which “IC50 of cell viability” value is on record?
A: > 46 µM

Q: How did the “IC50 of cell viability” value turn out when COc1cc(N[S+](=O)([O-])c2ccc(N)cc2)nc(C)n1 [SULFAMETOMIDINE] was run?
A: > 46 µM

Q: How did the “IC50 of cell viability” value turn out when CC(=O)Nc1ccc([S+](=O)([O-])Nc2ccc([N+](=O)[O-])cc2)cc1 [SULFANITRAN] was run?
A: > 46 µM

Q: For N[S+](=O)([O-])c1ccc(NC(=O)CCC(=O)O)cc1 [SULFASUCCINAMIDUM], which “IC50 of cell viability” value is on record?
A: > 46 µM

Q: NC(=S)N[S+](=O)([O-])c1ccc(N)cc1 [SULFATOLAMIDE] was tested. Which “IC50 of cell viability” value did it give?
A: > 46 µM

Q: For O=C1OC(c2ccc(O)c([S+](=O)([O-])O)c2)(c2ccc(O)c([S+](=O)([O-])O)c2)c2c(Br)c(Br)c(Br)c(Br)c21 (configuration not stated) [SULFOBROMOPHTHALEIN SODIUM], which “IC50 of cell viability” value is on record?
A: > 46 µM

Q: How did the “IC50 of cell viability” value turn out when CCC(C)(S(=O)(=O)CC)S(=O)(=O)CC [SULFONETHYLMETHANE] was run?
A: > 46 µM

Q: For CCS(=O)(=O)C(C)(C)S(=O)(=O)CC [SULFONMETHANE], which “IC50 of cell viability” value is on record?
A: > 46 µM

Q: COc1cc([S+](C)[O-])ccc1-c1nc2ncccc2[nH]1 (configuration not stated) [SULMAZOLE] was tested. Which “IC50 of cell viability” value did it give?
A: > 46 µM

Q: How did the “IC50 of cell viability” value turn out when CCCCCCCCNC(C)C(O)c1ccc(SC(C)C)cc1 (configuration not stated) [SULOCTIDIL] was run?
A: > 46 µM

Q: With CN[S+](=O)([O-])Cc1ccc2[nH]cc(CCN(C)C)c2c1 [SUMATRIPTAN] as the compound, how does the “IC50 of cell viability” value read?
A: > 46 µM

Q: CCOCC(O)COc1ccc(NC(=O)CC[S+](C)C)cc1 (configuration not stated) [SUPLATAST TOSILATE] was tested. Which “IC50 of cell viability” value did it give?
A: > 46 µM

Q: Cc1ccc(C(=O)Nc2ccc(S(=O)(=O)O)c3cc(S(=O)(=O)O)cc(S(=O)(=O)O)c23)cc1NC(=O)c1cccc(NC(=O)Nc2cccc(C(=O)Nc3cc(C(=O)Nc4ccc(S(=O)(=O)O)c5cc(S(=O)(=O)O)cc(S(=O)(=O)O)c45)ccc3C)c2)c1 [SURAMIN] was tested. Which “IC50 of cell viability” value did it give?
A: > 46 µM

Q: With CCON=O [SWEET SPIRITS OF NITRE] as the compound, how does the “IC50 of cell viability” value read?
A: > 46 µM

Q: CC(=O)NC(=O)c1ccccc1O [Salacetamida] was tested. Which “IC50 of cell viability” value did it give?
A: > 46 µM

Q: Which “IC50 of cell viability” value does the source give for O=C(O)c1cc(/N=N/c2ccc([S+](=O)([O-])Nc3ccccn3)cc2)ccc1O [Salicylazosulfapyridine] here?
A: > 46 µM

Q: Which “IC50 of cell viability” value does the source give for O=C(O)c1ccccc1O [Salicylic acid] here?
A: > 46 µM

Q: OCc1cc(C(O)CNCCCCCCOCCCCc2ccccc2)ccc1O (configuration not stated) [Salmeterol] was tested. Which “IC50 of cell viability” value did it give?
A: > 46 µM

Q: Which “IC50 of cell viability” value does the source give for CC(O)C(O)[C@H]1CNc2nc(N)nc(O)c2N1 (some centres not stated) [Sapropterin] here?
A: > 46 µM

Q: For CC(C)(C)NC(=O)[C@@H]1C[C@@H]2CCCC[C@@H]2CN1C[C@@H](O)[C@H](Cc1ccccc1)NC(=O)[C@H](CC(N)=O)NC(=O)c1ccc2ccccc2n1 [Saquinavir Mesylate], which “IC50 of cell viability” value is on record?
A: > 46 µM

Q: How did the “IC50 of cell viability” value turn out when N#C[C@@H]1C[C@@H]2C[C@@H]2N1C(=O)[C@@H](N)C12CC3CC(CC(O)(C3)C1)C2 [Saxagliptin] was run?
A: > 46 µM

Q: With C[N+]1([O-])[C@@H]2CC(OC(=O)[C@@H](CO)c3ccccc3)C[C@H]1[C@H]1O[C@H]12 (some centres not stated) [Scopolamin-N-oxide hydrobromide] as the compound, how does the “IC50 of cell viability” value read?
A: > 46 µM

Q: Br.CN1[C@H]2C[C@H](OC(=O)[C@H](CO)c3ccccc3)C[C@H]1[C@H]1O[C@H]12.O.O.O [Scopolamine hydrobromide trihydrate] was tested. Which “IC50 of cell viability” value did it give?
A: > 46 µM

Q: Which “IC50 of cell viability” value does the source give for C#CCN(C)[C@@H](C)Cc1ccccc1 [Selegiline hydrochloride] here?
A: > 46 µM

Q: Which “IC50 of cell viability” value does the source give for Cn1cnc2c(F)c(Nc3ccc(Br)cc3Cl)c(C(=O)NOCCO)cc21 [Selumetinib] here?
A: > 46 µM

Q: For CCN(CC)CCNC(=O)c1ccc(N[S+](C)(=O)[O-])cc1.Cl.O [Sematilide monohydrochloride monohydrate], which “IC50 of cell viability” value is on record?
A: > 46 µM

Q: How did the “IC50 of cell viability” value turn out when Clc1ccc([C@H](Cn2ccnc2)OCc2csc3c(Cl)cccc23)c(Cl)c1 [Sertaconazole nitrate] was run?
A: > 46 µM

Q: With O=C1NCCN1CCN1CCC(c2cn(-c3ccc(F)cc3)c3ccc(Cl)cc23)CC1 [Sertindole] as the compound, how does the “IC50 of cell viability” value read?
A: > 46 µM

Q: How did the “IC50 of cell viability” value turn out when C=CCN.Cl.ClC[C@H]1CO1 [Sevelamer hydrochloride] was run?
A: > 46 µM

Q: CN/C(=N\c1ccc(C2=NNC(=O)CC2C)cc1)NC#N (configuration not stated) [Siguazodan] was tested. Which “IC50 of cell viability” value did it give?
A: > 46 µM

Q: Which “IC50 of cell viability” value does the source give for CCCc1nn(C)c2c(O)nc(-c3cc([S+](=O)([O-])N4CCN(C)CC4)ccc3OCC)nc12 [Sildenafil citrate] here?
A: > 46 µM

Q: For COc1cc([C@H]2Oc3cc([C@H]4Oc5cc(O)cc(O)c5C(=O)[C@@H]4O)ccc3O[C@@H]2CO)ccc1O [Silibinin], which “IC50 of cell viability” value is on record?
A: > 46 µM

Q: Which “IC50 of cell viability” value does the source give for CCC(C)(C)C(=O)O[C@@H]1C[C@H](C)\C=C2\C=C/[C@H](C)[C@@H](CC[C@H]3C[C@@H](O)CC(=O)O3)[C@@H]12 [Simvastatin] here?
A: > 46 µM

Q: With CN[C@H]1[C@@H](O)[C@@H](OC[C@@]1(C)O)O[C@@H]2[C@H](N)C[C@H](N)[C@H](O[C@@H]3O\C(=C/C[C@H]3N)CN)[C@H]2O [Sisomicin sulfate] as the compound, how does the “IC50 of cell viability” value read?
A: > 46 µM

Q: How did the “IC50 of cell viability” value turn out when N[C@@H]1CN(CC12CC2)C3=C(F)C=C4C(=O)\C(=C/N([C@@H]5C[C@@H]5F)C4=C3Cl)C(O)=O [Sitafloxacin] was run?
A: > 46 µM

Q: How did the “IC50 of cell viability” value turn out when O.O.[Na+].[Na+].[O]=[Cr](=[O])([O-])[O][Cr](=[O])(=[O])[O-] [Sodium Dichromate Dihydrate] was run?
A: > 46 µM

Q: For O.O=C([O-])CC([S][Au])C(=O)[O-].[Na+].[Na+] (configuration not stated) [Sodium aurothiomalate hydrate], which “IC50 of cell viability” value is on record?
A: > 46 µM

Q: With O=c1[n-]c(=O)n(Cl)c(=O)n1Cl [Sodium dichloroisocyanurate] as the compound, how does the “IC50 of cell viability” value read?
A: > 46 µM

Q: CCCCCCCCCCCCOS(=O)(=O)[O-] [Sodium dodecyl sulfate] was tested. Which “IC50 of cell viability” value did it give?
A: > 46 µM

Q: How did the “IC50 of cell viability” value turn out when O=S(=O)([O-])O.[Na+] [Sodium hydrogen sulfate] was run?
A: > 46 µM

Q: For [O-]Cl [Sodium hypochlorite], which “IC50 of cell viability” value is on record?
A: > 46 µM

Q: For Cc1ccc(S(=O)(=O)[O-])cc1C [Sodium xylenesulfonate], which “IC50 of cell viability” value is on record?
A: > 46 µM

Q: For Cc1cc(CC(=O)[O-])n(C)c1C(=O)c1ccc(Cl)cc1 [Sodium zomepirac], which “IC50 of cell viability” value is on record?
A: > 46 µM

Q: CC(C)=CCOc1ccc(/C=C/C(=O)c2ccc(OCC=C(C)C)cc2OCC(=O)O)cc1 [Sofalcone] was tested. Which “IC50 of cell viability” value did it give?
A: > 46 µM

Q: CN(C)[C@@H]\1[C@H]2C[C@H]3\C(=C(\O)[C@@]2(O)C(=O)\C(=C1O)C(=O)NCN4CCCC4)C(=O)C5=C(C=CC=C5O)[C@]3(C)O [Solvocillin] was tested. Which “IC50 of cell viability” value did it give?
A: > 46 µM

Q: With C/C=C/C=C/C(=O)O [Sorbic acid] as the compound, how does the “IC50 of cell viability” value read?
A: > 46 µM

Q: How did the “IC50 of cell viability” value turn out when O=C1NC(=O)[C@@]2(CCOc3ccc(F)cc32)N1 [Sorbinil] was run?
A: > 46 µM

Q: How did the “IC50 of cell viability” value turn out when CCCCCCCCCCCCCCCCCC(=O)OC[C@@H](O)[C@H]1OC[C@H](O)[C@H]1O [Sorbitan monostearate] was run?
A: > 46 µM

Q: For CCCCCCCC/C=C\CCCCCCCC(=O)OC[C@@H](O)[C@H]1OC[C@H](O)[C@H]1O [Sorbitan, mono-(9Z)-9-octadecenoate], which “IC50 of cell viability” value is on record?
A: > 46 µM

Q: How did the “IC50 of cell viability” value turn out when C1CC[N@]2C[C@@H]3C[C@@H](CN4CCCC[C@H]34)[C@H]2C1 [Sparteine (-)] was run?
A: > 46 µM

Q: For CN[C@H]1[C@@H](O)[C@@H](NC)[C@@H]2O[C@]3(O)C(=O)C[C@@H](C)O[C@H]3O[C@H]2[C@H]1O [Spectinomycin dihydrochloride], which “IC50 of cell viability” value is on record?
A: > 46 µM

Q: Which “IC50 of cell viability” value does the source give for CO[C@H]1[C@@H](O[C@@H]2O[C@@H](C)[C@@H](O[C@H]3C[C@](C)(O)[C@H](O)[C@H](C)O3)[C@@H](N(C)C)[C@H]2O)[C@H](CC=O)C[C@@H](C)[C@@H](O[C@H]2CC[C@H](N(C)C)[C@H](C)O2)/C=C\C=C/C[C@@H](C)OC(=O)C[C@H]1O [Spiramycin] here?
A: > 46 µM

Q: Which “IC50 of cell viability” value does the source give for CCOC(=O)[C@H](CCc1ccccc1)NC(C)C(=O)N1CC2(CC1C(=O)O)SCCS2 (some centres not stated) [Spirapril] here?
A: > 46 µM

Q: For CC(=O)SC1C\C2=C\C(=O)CCC2(C)C3CCC4(C)C(CCC45CCC(=O)O5)C13 (configuration not stated) [Spironolactone], which “IC50 of cell viability” value is on record?
A: > 46 µM

Q: OC(=O)CC/1=N/N(CC2=CC=C(Br)C=C2F)C(=O)C3=CC=CC=C13 [Statil] was tested. Which “IC50 of cell viability” value did it give?
A: > 46 µM

Q: CCCCCCCCCCCCCCCCCC(=O)O [Stearic acid] was tested. Which “IC50 of cell viability” value did it give?
A: > 46 µM

Q: How did the “IC50 of cell viability” value turn out when CC(C)(C)C(O)C=Cc1ccc2c(c1)OCO2 (configuration not stated) [Stiripentol] was run?
A: > 46 µM

Q: How did the “IC50 of cell viability” value turn out when CN[C@@H]1[C@H](O[C@H]2[C@H](O[C@H]3[C@H](O)[C@@H](O)[C@H](NC(=N)N)[C@@H](O)[C@@H]3NC(=N)N)O[C@@H](C)[C@]2(O)C=O)O[C@@H](CO)[C@H](O)[C@H]1O [Streptomycin sulfate] was run?
A: > 46 µM

Q: For CN(N=O)C(=O)N[C@H]1[C@H](O)[C@H](O)[C@H](CO)O[C@@H]1O [Streptozotocin], which “IC50 of cell viability” value is on record?
A: > 46 µM

Q: Which “IC50 of cell viability” value does the source give for C=Cc1ccccc1 [Styrene] here?
A: > 46 µM

Q: How did the “IC50 of cell viability” value turn out when C[N+](C)(C)CCOC(=O)CCC(=O)OCC[N+](C)(C)C.[Cl-].[Cl-] [Succinylcholine chloride] was run?
A: > 46 µM

Q: For O=C(O)CCC(=O)Nc1ccc([S+](=O)([O-])Nc2nccs2)cc1 [Succinylsulfathiazole], which “IC50 of cell viability” value is on record?
A: > 46 µM
